These results are taken from patent US6569404B1, “Phase shift colloids as ultrasound contrast agents” (priority 1993, dated 2003).

Where two headings read alike, the source gives them in different places.

Data set [1] is described as follows: Emulsion stability versus relative HLB of Pluronic L61/F68 mixtures. Conditions: from stability of emulsions. Type of data set: physicochemical. From the text:
The relative hydrophilic-lipophilic balance (HLB) is a method of optimizing a nonionic surfactant solution to achieve greatest stability. It is described in detail in Emulsions: Theory and Practice, Paul Becher, 1965, Robert E. Krieger Publishing Company Malabar, Fla., and references contained therein, and is incorporated here by reference. Solutions of Pluronic L61 (HLB 3.0) and F68 (HLB 29) were mixed to achieve intermediate HLB values by the following formula:
HLB=fL61 {HLB of L61}+ff68 {HLB of F68} The actual solutions, the calculated HLB values, and the stability of the final formulation (a 2% v/v emulsion of dodecafluorohexane) are contained in the following table: […]

The conditions of data set [2]: cited from earlier work.
Data set [3] in a line: Acoustic backscatter: gray scale intensity (videodensity) in water beaker at 37° C., Hewlett Packard 77020 scanner, 5.0 MHz. Here is the method: Two solutions were prepared to simulate the administration to an organism of either a colloidal dispersion of a low boiling liquid or the liquid, neat.
The emulsions contained Fluorad 170 C as surfactant and were formed by applying acoustic energy from a waterbath sonicator.

Data set [4] is described as follows: Interfacial tension against dodecafluoropentane at 4° C., Kruss Drop Volume Tensiometer DVT-10. Type of data set: physicochemical. Conditions: from graph of IFT versus HLB. How it is done: Mixtures of Pluronic P-123 and Pluronic F-127 were formed, yielding a 1% solution, v/v, with graded HLB numbers and the interfacial tension (IFT) of the solutions against dodecafluoropentane determined at 4° C., using a Kruss Drop Volume Tensiometer DVT-10, Kruss USA, Charlotte, N.C. The results are contained in the following table:
Interfacial tensions of various amphiphilic materials in aqueous solutions (all expressed as v/v solutions) against dodecafluoropentane were measured at 4° C. and emulsions created from each formulation, as described in Example 13.

Data set [5] is described as follows: Backscatter persistence and intensity of 2% mixtures in saline, 1000 mL water at 37° C., Hewlett-Packard 77020A. Conditions: for Ratio of Intensity: backscatter intensity qualitatively ranked from 0 to 5. Here is the method: The following emulsions were formulated and tested according to methods described in Example 18.
All solutions were made as a 2% solution in saline. A volume of 0.1 cc of each chemical was comminuted with 5 cc saline through a 3-way stopcock for 25 passes. A volume of 1.0 mL of the mixture was immediately injected through a 1.2 μm filter into a stirring water bath containing 1000 mL water at 37° C. The resulting backscatter was then recorded with the use of a Hewlett-Packard 77020A Ultrasound System at […].

For data set [6] the following is noted: at 25° C.; cited from earlier work.
Data set [7] is described as follows: In vitro ultrasound backscatter / echogenicity of formulations (qualitative). Conditions: in words.
For another data set, the system named is dogs. Conditions: Ziskin et al. 1972, cited from earlier work.
Data set [8] in a line: Expected change in dispersion size from liquid and gas densities. Conditions: calculated from cubic root of volume. Here is the method: One can also calculate the expected change in dispersion size if one knows the relative densities of the dispersed liquid as a gas and liquid. For example, the Gas Data Book, by W Braker and A Mossman, Matheson, contains such data. Examining octafluorocyclobutane, one finds that 1 L of the liquid yields 188 L of gas at a pressure of 760 mm Hg and 15° C. Since the volume of a sphere is related to the diameter of a sphere by the cubic root of the volume, the phase transition for an octafluorobutane emulsion particle will cause a 5.7-fold increase in diameter.

For data set [9] the following is noted: 760 mm Hg and 15° C.; Gas Data Book; cited from earlier work.
Where [10] appears, read: dispersed phase of emulsions of Example 18.
[11] abbreviates: Chemical List of low boiling liquids, Example 45.

For the molecule `FC(F)(F)C(F)(F)C(F)(F)C(F)(F)C(F)(F)C(F)(F)F` [Perfluorohexane, reference compound], the “relative HLB established” value in data set [1] is 6-8. In [2] (setting [10]), the “Boiling Point” value was 59 °C.

On to `FC(F)(F)C(F)(F)C(F)(F)C(F)(F)C(F)(F)F` [dodecafluoropentane], for which the grayscale intensity was determined as 58.5 units in data set [3] (emulsion with Fluorad 170 C, 0.2 mL in 1000 mL water at 37° C., six seconds, backgrounds 2.9, 3.0, 3.6); 5.0 in data set [3] (fifty-two seconds post-injection into 1000 mL water at 37° C., gray scale of 2 to 254); 7.7 in [3] (five seconds post-injection into 1000 mL water at 37° C., gray scale of 2 to 254, 0.1 mL emulsion (before 4.27) or 0.2 mL neat liquid (before 4.9)). In addition, in data set [4], the “HLB for the dispersed phase liquid” value is reported as “about 14”. Also, the “time over which backscatter diminished” value in data set [5] (1.0 mL in 1000 mL water at 37° C.) lay in the range of 4 to 5 min. The “Ratio of Persistence” value in data set [5] (2% in saline, 1.0 mL in 1000 mL water at 37° C., saline+air set as 1) was found to be 24. Besides, the “Ratio of Intensity” value in [5] was determined as 5; in data set [5] (listed as Dodecafluoropentane), 5.0. Moreover, the “Boiling Point” value was 30.5 degrees Celcius in [2] (setting [11]), 28-29 °C in data set [2] and 29 °C in data set [2] (setting [10]). In addition, the B.P. in data set [2] (chemicals of Example 52) was 29 °C. In addition, the “Vapor Pressure” value in [6] is 646 mmHg at 25 °C.

As for `CCOCC` [ether, diethyl ether], in data set [7], the “in vitro ultrasound backscatter characteristics” value is recorded as “useful contrast signal”. Besides, the lethality entry with dogs (injections of 20 mL) is “proved fatal”. Moreover, the “contrast effect (Doppler signal)” value in the data set on dogs (intraarterial) is on record as “greatest contrast effect of any agent that we tried”. Besides, the “Boiling Point” value in [2] (setting [11]) is on record as 34.5 degrees Celcius.

Turning to `FC1(F)C(F)(F)C(F)(F)C1(F)F` [octafluorocyclobutane], the “increase in diameter of emulsion particle on phase transition” value in data set [8] was 5.7 fold. In addition, in data set [9], the “volume of gas from 1 L of the liquid” value was 188 L.
